Test results published in ChEMBL document CHEMBL5543163, “Druglike, 18F-labeled PET Tracers Targeting Fibroblast Activation Protein” (J Med Chem, 2024).

Legend:
[1] = target: T1, Prolyl endopeptidase FAP (Homo sapiens, UniProt Q12884); assay: Inhibition of FAP (unknown origin)
T1 sequence (Q12884 whole entry): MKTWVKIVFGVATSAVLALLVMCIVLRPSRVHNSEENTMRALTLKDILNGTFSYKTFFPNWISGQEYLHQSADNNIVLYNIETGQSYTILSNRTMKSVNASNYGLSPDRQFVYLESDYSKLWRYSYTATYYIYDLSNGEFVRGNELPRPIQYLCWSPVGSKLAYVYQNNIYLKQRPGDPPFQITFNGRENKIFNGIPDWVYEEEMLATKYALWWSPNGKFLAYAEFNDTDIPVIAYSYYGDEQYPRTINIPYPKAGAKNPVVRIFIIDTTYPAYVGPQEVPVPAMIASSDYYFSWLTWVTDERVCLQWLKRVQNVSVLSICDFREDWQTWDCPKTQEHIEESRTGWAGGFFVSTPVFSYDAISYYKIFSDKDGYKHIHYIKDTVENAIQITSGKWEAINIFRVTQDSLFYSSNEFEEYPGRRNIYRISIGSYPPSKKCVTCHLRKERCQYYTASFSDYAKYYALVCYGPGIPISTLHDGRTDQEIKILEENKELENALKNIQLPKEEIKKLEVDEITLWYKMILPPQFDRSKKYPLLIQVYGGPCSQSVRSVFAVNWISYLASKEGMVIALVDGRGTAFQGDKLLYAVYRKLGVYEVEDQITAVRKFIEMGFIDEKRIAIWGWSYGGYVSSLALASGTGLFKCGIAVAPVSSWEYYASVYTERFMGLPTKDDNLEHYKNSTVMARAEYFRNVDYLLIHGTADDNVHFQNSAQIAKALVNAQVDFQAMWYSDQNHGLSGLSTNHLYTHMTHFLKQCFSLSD

[2] = target: T2, Prolyl endopeptidase (Homo sapiens, UniProt P48147); assay: Inhibition of PREP (unknown origin)
T2 sequence (P48147 whole entry): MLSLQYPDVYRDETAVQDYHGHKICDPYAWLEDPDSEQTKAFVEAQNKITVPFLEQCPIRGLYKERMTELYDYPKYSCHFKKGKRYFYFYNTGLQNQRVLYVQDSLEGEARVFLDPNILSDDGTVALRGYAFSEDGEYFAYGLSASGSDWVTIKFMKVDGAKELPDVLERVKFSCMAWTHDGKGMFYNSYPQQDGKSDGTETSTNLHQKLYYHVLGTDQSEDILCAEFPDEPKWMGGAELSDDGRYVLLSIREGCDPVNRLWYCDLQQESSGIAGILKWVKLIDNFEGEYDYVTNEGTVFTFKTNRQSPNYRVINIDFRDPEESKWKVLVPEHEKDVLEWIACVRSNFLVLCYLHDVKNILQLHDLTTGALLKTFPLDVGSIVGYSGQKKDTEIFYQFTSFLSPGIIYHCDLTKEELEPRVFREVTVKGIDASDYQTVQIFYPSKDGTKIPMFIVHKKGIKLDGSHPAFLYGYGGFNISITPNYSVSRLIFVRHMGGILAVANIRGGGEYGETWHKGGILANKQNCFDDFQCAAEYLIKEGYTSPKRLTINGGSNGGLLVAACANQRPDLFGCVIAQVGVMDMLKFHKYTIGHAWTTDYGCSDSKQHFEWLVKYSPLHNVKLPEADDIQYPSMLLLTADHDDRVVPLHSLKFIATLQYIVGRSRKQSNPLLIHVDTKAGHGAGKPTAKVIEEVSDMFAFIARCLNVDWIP

[3] = target: Dipeptidyl peptidase 8 (Homo sapiens, UniProt Q6V1X1); assay: Inhibition of DPP8 (unknown origin)
Dipeptidyl peptidase 8, sequence (Q6V1X1 whole entry): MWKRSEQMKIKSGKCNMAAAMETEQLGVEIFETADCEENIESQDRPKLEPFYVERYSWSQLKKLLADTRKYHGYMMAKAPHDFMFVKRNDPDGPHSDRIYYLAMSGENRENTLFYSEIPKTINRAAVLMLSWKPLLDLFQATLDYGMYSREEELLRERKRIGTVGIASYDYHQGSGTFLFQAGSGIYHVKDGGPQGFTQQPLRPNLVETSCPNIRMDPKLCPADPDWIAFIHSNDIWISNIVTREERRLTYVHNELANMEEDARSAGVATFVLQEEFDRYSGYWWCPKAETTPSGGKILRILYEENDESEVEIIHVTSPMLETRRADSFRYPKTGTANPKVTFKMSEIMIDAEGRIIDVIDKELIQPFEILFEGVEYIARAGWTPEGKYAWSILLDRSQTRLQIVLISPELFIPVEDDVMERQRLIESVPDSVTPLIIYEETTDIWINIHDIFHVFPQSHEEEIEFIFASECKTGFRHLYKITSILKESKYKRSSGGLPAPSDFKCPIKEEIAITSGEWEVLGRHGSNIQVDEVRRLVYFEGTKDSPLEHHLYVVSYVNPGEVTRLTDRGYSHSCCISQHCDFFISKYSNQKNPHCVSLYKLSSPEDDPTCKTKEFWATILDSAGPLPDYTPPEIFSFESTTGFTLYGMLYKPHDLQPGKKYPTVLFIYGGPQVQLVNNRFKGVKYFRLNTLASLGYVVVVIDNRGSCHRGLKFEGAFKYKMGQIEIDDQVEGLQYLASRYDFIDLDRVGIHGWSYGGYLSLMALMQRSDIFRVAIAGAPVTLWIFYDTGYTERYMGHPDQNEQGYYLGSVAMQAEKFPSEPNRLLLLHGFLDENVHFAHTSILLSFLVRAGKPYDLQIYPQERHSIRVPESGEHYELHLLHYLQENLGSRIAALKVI

SMILES	IC50 [1] [µM]	IC50 [2] [µM]	IC50 [3] [µM]
CN(CC(=O)O)C1(CCCCNCCNc2c(NCCCCOc3ccc4nccc(C(=O)NCC(=O)N5CC(F)(F)C[C@H]5C#N)c4c3)c(=O)c2=O)CN(CC(=O)O)CCN(CC(=O)O)C1	0.0008	1.7	
N#C[C@@H]1CC(F)(F)CN1C(=O)CNC(=O)c1ccnc2ccccc12			4.7
